Read-outs that look alike come from different tables or passages of the source.
Legend:
THP1 macrophages = experiment: LPS (Klebsiella pneumoniae) activation of THP1 macrophages, MCP1 and TNFα secretion (HTRF); type: cell-based, human; settings: 24 h, then LPS Klebsiella 6 h; for inhibition at 1 µM / inhibition at 10 µM: Homo sapiens; for inhibition at 1 µM: THP-1, 1 μM; for inhibition at 10 µM: THP-1, 10 μM
Method: In order to test the efficacy of the compounds on macrophage activation and pro-inflammatory cytokine production, 2.5×10^4 THP-1 cells were cultured in a 384-well plate and treated with 100 ng/mL PMA (#P8139, Sigma) for 24 h to induce differentiation into macrophages.
Then, medium was removed and FBS-deprived medium containing 1 or 10 μM compound was added for 24 h. Finally, THP1 macrophages were stimulated for 6 h with 100 ng/mL LPS (Klebsiella pneumoniae, #L4268, Sigma-Aldrich).
Monocyte chemoattractant protein 1 (MCP1) and Tumor necrosis α (TNFα) were measured in cell supernatants by Homogeneous Time Resolved Fluorescence (HTRF, #62[…] for TNFα, and 62HCCL2PEG for MCP1, Cisbio). Fluorescence was measured with Infinite 500 (#30019337, Tecan) to determine the concentration of cytokines.
In order to evaluate the effect of the compounds according to the invention on LPS-induced cytokines production by macrophages, the percentage of inhibition over the vehicle condition were calculated for each compound at 1 and 10 μM.

HepG2 cells = experiment: Staurosporin-induced apoptosis in HepG2 cells, caspase 3/7 activity; type: cell-based, human; settings: 16 h pre-treatment, then 10 μM staurosporin 4 h; for % Inhibition of caspase activity over mean Veh.: 0.3 μM; for inhibition at 0.3 µM: Homo sapiens, HepG2, 0.3 μM, read-out: % Inhibition of caspase activity over mean Veh.
Method: In order to evaluate the effect of the compounds on human hepatocytes that undergo a cellular stress induced by staurosporin, the human hepatoblastoma-derived HepG2 cell line (ECACC, #85011430, Sigma-Aldrich) was cultured in high-glucose DMEM medium (#41965, Gibco, France) supplemented with 10% of fetal bovine serum (FBS, #10270, Gibco), 1% penicillin/streptomycin (#15140, Gibco), 1% sodium pyruvate (#11360, Gibco) and 1% MEM non-essential amino acids (#11140, Gibco) in a 5% CO2 incubator at 37° C.
To evaluate caspase 3/7 activity, which is a surrogate marker of apoptosis, 1.5×10^4 cells were plated in a 384-well plate (#781080, Greiner, France). After cell adherence (8 hours), cells were serum starved for 16 h in the presence of 0.3 μM of compounds or vehicle. Cpd.1 was also used at 3 and 10 μM. Thereafter, cells were treated with 10 μM staurosporin (#569397, Sigma-Aldrich, Germany) supplemented with compound for additional 4 hours before cell lysis and caspase activity measurement.
Caspase 3/7 activity was measured using Caspase Glow™ 3/7 assay (#G8093, Promega, USA). Luminescence was measured using a Spark microplate reader (#30086376, Tecan, USA). The amount of luminescence (RLU) directly correlates with caspase 3/7 activity.

[1] = tested on: LPS-induced endotoxemia, Sprague Dawley rats; experiment: LPS-induced endotoxemia in rats, hepatic markers and serum TNFα; type: in vivo; settings: rat, 100 mg/kg/day oral 3 days before LPS, 3 h after LPS
[2] = tested on: LPS/GaIN acute liver failure, C57BL/6J mice; experiment: LPS/GalN model of acute liver failure in mice, hepatic gene expression, serum cytokines and albumin; type: in vivo, mouse; settings: mouse serum, 1 mg/kg/day oral 3 days before LPS/GaIN, 4 h after injection
[3] = read-out: % inhibition of MCP1 secretion over mean Veh.
[4] = read-out: % inhibition of TNFα secretion over mean Veh.

COC(CCc1cc(C)c(OC(C)(C)C(=O)O)c(C)c1)c1ccc(Br)cc1 (stereo not drawn) [Cpd. 14, 2-[2,6-dimethyl-4-[3-[4-bromophenyl]-3-methoxypropyl]phenoxy]-2-methylpropanoic acid]
inhibition at 1 µM (THP1 macrophages; [3]): 91% | inhibition at 1 µM (THP1 macrophages; [4]): 18%

COC(CCc1cc(C)c(OC(C)(C)C(=O)O)c(C)c1)c1ccc(SC)cc1 (stereo not drawn) [Cpd. 4, 2-[2,6-dimethyl-4-[3-[4-(methylthio)phenyl]-3-methoxypropyl]phenoxy]-2-methylpropanoic acid]
% Inhibition of caspase activity over mean Veh. (HepG2 cells): 32% | inhibition at 0.3 µM (HepG2 cells): 26 to 79% | % inhibition of MCP1 secretion over mean Veh. (THP1 macrophages; 10 μM, 10 µM): 110% | inhibition at 1 µM (THP1 macrophages; [3]): 100%

CCOC(CCc1ccc(OC(C)(C)C(=O)O)c(Cl)c1Cl)c1sc(-c2ccc(C(F)(F)F)cc2)nc1C (stereo not drawn) [Cpd. 9, 2-(2,3-dichloro-4-(3-ethoxy-3-(4-methyl-2-(4-(trifluoromethyl)-phenyl)thiazol-5-yl)propyl)phenoxy)-2-methylpropanoic acid]
inhibition at 1 µM (THP1 macrophages; [3]): 86% | inhibition at 1 µM (THP1 macrophages; [4]): 3%

Cc1cc(CCC(=O)c2ccc(OC(F)(F)F)cc2)cc(C)c1OC(C)(C)C(=O)O [Cpd. 2, 2-[2,6-dimethyl-4-[3-[4-(trifluoromethyloxy)phenyl]-3-oxo-propyl]phenoxy]-2-methylpropanoic acid]
inhibition at 1 µM (THP1 macrophages; [3]): 96%

CCc1ccc(CCOc2ccc(CC3SC(=O)NC3=O)cc2)nc1 (stereo not drawn) [Cpd. 21, pioglitazone, reference compound]
inhibition at 1 µM (THP1 macrophages; [3]): 80% | inhibition at 1 µM (THP1 macrophages; [4]): 0% | inhibition at 10 µM (THP1 macrophages; [4]): 11 to 58%

O=C(O)CCCc1cc2cc(Cl)ccc2n1S(=O)(=O)c1ccc2ncsc2c1 [Cpd. 23, lanifibranor, reference compound]
inhibition at 1 µM (THP1 macrophages; [3]): 100% | inhibition at 1 µM (THP1 macrophages; [4]): 15%

Cc1cc(CCC(O)c2ccc(OC(F)(F)F)cc2)cc(C)c1OC(C)(C)C(=O)O (stereo not drawn) [Cpd. 6, 2-(4-(3-hydroxy-3-(4-(trifluoromethoxy)phenyl)propyl)-2,6-dimethylphenoxy)-2-methylpropanoic acid]
inhibition at 0.3 µM (HepG2 cells): 26 to 79% | inhibition at 1 µM (THP1 macrophages; [3]): 94%

CON=C(CCc1cc(C)c(OC(C)(C)C(=O)O)c(C)c1)c1ccc(OC(F)(F)F)cc1 [Cpd. 7, 2-(4-(3-(methoxyimino)-3-(4-(trifluoromethoxy)phenyl)propyl)-2,6-dimethylphenoxy)-2-methylpropanoic acid]
inhibition at 1 µM (THP1 macrophages; [3]): 95% | inhibition at 1 µM (THP1 macrophages; [4]): 25%

COC(CCc1cc(C)c(OC(C)(C)C(=O)O)c(C)c1)c1ccc(C(F)(F)F)cc1 (stereo not drawn) [Cpd. 13, 2-(4-(3-methoxy-3-(4-(trifluoromethyl)phenyl)propyl)-2,6-dimethylphenoxy)-2-methylpropanoic acid]
% Inhibition of caspase activity over mean Veh. (HepG2 cells): 79% | % inhibition of MCP1 secretion over mean Veh. (THP1 macrophages; 10 μM, 10 µM): 111% | % inhibition of TNFα secretion over mean Veh. (THP1 macrophages; 10 μM, 10 µM): 18% | inhibition at 1 µM (THP1 macrophages; [3]): 99% | inhibition at 1 µM (THP1 macrophages; [4]): 0% | inhibition at 10 µM (THP1 macrophages; [4]): 11 to 58%

CSc1ccc(C(CCc2cc(C)c(OC(C)(C)C(=O)O)c(C)c2)OC(C)C)cc1 (stereo not drawn) [Cpd. 5, 2-[2,6-dimethyl-4-[3-[4-(methylthio)phenyl]-3-isopropyloxypropyl]phenoxy]-2-methylpropanoic acid]
inhibition at 1 µM (THP1 macrophages; [3]): 93%

CN(CCOc1ccc(CC2SC(=O)NC2=O)cc1)c1ccccn1 (stereo not drawn) [Cpd. 22, rosiglitazone, reference compound]
% inhibition of MCP1 secretion over mean Veh. (THP1 macrophages; 1 μM): 79% | % inhibition of TNFα secretion over mean Veh. (THP1 macrophages; 1 μM): 36% | % inhibition of MCP1 secretion over mean Veh. (THP1 macrophages; 10 μM, 10 µM): 117% | % inhibition of TNFα secretion over mean Veh. (THP1 macrophages; 10 μM, 10 µM): 11%

CC(C)OC(=O)C(C)(C)Oc1ccc(C(=O)c2ccc(Cl)cc2)cc1 [Cpd. 19, fenofibrate]
reduction of LPS-induced serum TNFα level [1]: 85% | restoration of serum albumin concentration compared to vehicle [1]: 79%

CC[C@@H](Oc1cccc(CN(CCCOc2ccc(OC)cc2)c2nc3ccccc3o2)c1)C(=O)O [Cpd. 18, pemafibrate, reference compound]
decrease of circulating IL10 level compared to vehicle [2]: 52% | serum albumin level [2]: restore albumin concentration

CCO[C@H](COc1ccc(C(F)(F)F)cc1)CSc1ccc(OCC(=O)O)c(C)c1.NCCCC[C@H](N)C(=O)O.O.O [Cpd. 20, seladelpar lysine, reference compound]
% inhibition of MCP1 secretion over mean Veh. (THP1 macrophages; 1 μM): 105%

Cc1cc(CCC(=O)c2ccc(C(F)(F)F)cc2)cc(C)c1OC(C)(C)C(=O)O [Cpd. 3, 2-[2,6-dimethyl-4-[3-[4-(trifluoromethyl)phenyl]-3-oxo-propyl]phenoxy]-2-methylpropanoic acid]
inhibition at 1 µM (THP1 macrophages; [3]): 90% | inhibition at 1 µM (THP1 macrophages; [4]): 0% | inhibition at 10 µM (THP1 macrophages; [4]): 11 to 58%

CC(C)(Oc1ccc(CCNC(=O)c2ccc(Cl)cc2)cc1)C(=O)O [Cpd. 17, bezafibrate, reference compound]
inhibition at 1 µM (THP1 macrophages; [3]): 22% | inhibition at 10 µM (THP1 macrophages; [3]): 54 to 132%

From US20240216312A1, “PPAR-AGONISTS FOR USE IN THE TREATMENT OF LIVER FAILURE” (Genfit, priority 2021, published 2024)
